Our source for the IC50 values is US7732609B2, “5-(arylsulfonyl)-pyrazolopiperidines” (Elan Pharmaceuticals, Inc., priority 2005, dated 2010).

In this assay the target is T1, gamma-secretase (Homo sapiens, UniProt P49768).
T1 construct: The assay used a partially purified extract of IMR-32 cell membranes as the gamma-secretase enzyme preparation; endogenous in cells; host or cells: IMR-32 cell membranes (partially purified extract)
Description: Gamma-secretase APP enzyme assay (MBP-C125 Swe cleavage at Aβ40 site, sandwich ELISA). In kind it is biochemical. Particulars: IMR-32 cell membrane extract as enzyme; MBP-C125swe substrate; 2 h at 37° C; read-out: γAPP. From the text:
The gamma-secretase APP enzyme assay was designed to measure the specific proteolytic cleavage of an APP substrate (MBP-C125 Swe fusion protein) at the Aβ40 site. The assay used a partially purified extract of IMR-32 cell membranes as the gamma-secretase enzyme preparation and a recombinant fusion protein containing the C-terminal 125 amino acids of the Swedish variant of the APP (MBP-C125swe) as the substrate. This assay involved two steps beginning with the enzymatic reaction generating a cleavage product that was captured with an immobilized antibody specific for the neo-epitope Aβ40 site. The captured cleavage product was then detected in a sandwich ELISA assay with a biotinylated reporter antibody that is specific to Aβ (17-28). Streptavidin-linked alkaline phosphatase was then added that would generate a fluorescent signal proportional to the amount of cleavage product. This assay was used to discover small molecule inhibitors of gamma-secretase.
Briefly, a 149 mg/ml solution of BIGCHAP detergent was made with water at 42° C. and then rotated for 30 minutes at the same temperature. This warmed solution of BigCHAPS(N,N-Bis(3-D-gluconamidopropyl)cholamide) detergent was used to dissolve Brain Extract Type-V (lipid containing a minimum of 40% phosphatidylethanolamine) from Sigma (St. Louis, Mo.) to a concentration of 8 mg/ml. This solution containing BigCHAPS and lipid at 8 mg/ml is then diluted to 0.53 mg/ml lipid with a pre-warmed solution of Hepes and sodium chloride. This final solution containing Hepes buffer, sodium chloride, BigCHAPS detergent and lipid is used to create working solutions of both gamma-secretase (25 Units) and the MBP-C125 substrate (0.05 mg/ml).
Gamma-secretase was then added to a 96-well micro-titre plate and then incubated with various concentrations of inhibitor for 30 minutes at 37° C. MBPC125 substrate was then added to initiate the reaction that would run for two hours at 37° C. The reaction was quenched with the addition of SDS to a final concentration of 0.1% and then 100 μl of the reaction mixture was transferred to a capture ELISA plate and incubated overnight at 4° C. Detection of the cleavage product was performed using a standard sandwich ELISA assay and quantified using a six point standard curve.
Background: ELISA stands for enzyme-linked immunosorbent assay.

As to `O=S(=O)(c1ccc(Cl)cc1)N1Cc2cn[nH]c2CC1c1cccnc1` (centres unmarked) [5-(4-chlorophenylsulfonyl)-6-(pyridin-3-yl)-4,5,6,7-tetrahydro-1H-pyrazolo[4,3-c]pyridine], the IC50 is 0.05 to 0.15 µM.

For the compound `O=S(=O)(c1ccc(Cl)cc1)N1CCc2n[nH]cc2C1c1nccs1` (centres unmarked) [2-(5-(4-chlorophenylsulfonyl)-4,5,6,7-tetrahydro-2H-pyrazolo[4,3-c]pyridin-4-yl)thiazole], the IC50 was under 0.05 µM.

Take `O=S(=O)(c1ccc(Cl)cc1)N1Cc2c[nH]nc2CC1c1cncnc1` (single isomer, unassigned) [5-(4-chlorophenylsulfonyl)-6-(pyrimidin-5-yl)-4,5,6,7-tetrahydro-1H-pyrazolo[4,3-c]pyridine]: the IC50 was under 0.05 µM.

As for `CC[C@@H]1c2cn[nH]c2C[C@@H](COC(=O)N(C)C)N1S(=O)(=O)c1ccc(Cl)cc1` [((4R,6S)-5-(4-chlorophenylsulfonyl)-4-ethyl-4,5,6,7-tetrahydro-1H-pyrazolo[4,3-c]pyridin-6-yl)methyl dimethylcarbamate], the IC50 lay within 0.15 to 0.3 µM.

Consider `O=S(=O)(c1ccc(Cl)cc1)N1Cc2cn[nH]c2CC1c1ccncc1` (centres unmarked) [5-(4-chlorophenylsulfonyl)-6-(pyridin-4-yl)-4,5,6,7-tetrahydro-1H-pyrazolo[4,3-c]pyridine], for which the IC50 was 0.15 to 0.3 µM.
